Laboratory results as given in PubChem BioAssay (NCI).
Several values for one entry are separate records, joined by “and”; a condition that tells them apart may be missing. Identical values can stand only once.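 Values below derive from 48-hour exposures of cells grown in 96-well plates, with endpoints linearly interpolated between the two concentrations bracketing the appropriate inhibition level. GI50 marks 50% less growth. TGI: total growth inhibition.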

Experiments:
Test in all cases: growth of human tumour cells (NCI), 48 h
[1] = tested on: OVCAR-5 ovarian
[2] = tested on: T-47D breast
[3] = tested on: 786-0 renal
[4] = tested on: SK-MEL-5 melanoma
[5] = tested on: MOLT-4 leukemia
[6] = tested on: M14 melanoma
[7] = tested on: U251 CNS
[8] = tested on: SF-539 CNS
[9] = tested on: HCC-2998 colon
[10] = tested on: SK-MEL-28 melanoma

NC(N)=NC(N)=NCCc1ccccc1
GI50 [1]: > 100 µM
TGI [1]: > 100 µM
GI50 [2]: 84.8 µM and > 100 µM
TGI [2]: > 100 µM
GI50 [3]: > 100 µM
TGI [3]: > 100 µM
GI50 [4]: 87.7 µM and 73.3 µM
TGI [4]: > 100 µM
GI50 [5]: > 100 µM
TGI [5]: > 100 µM
GI50 [6]: > 100 µM
TGI [6]: > 100 µM
GI50 [7]: > 100 µM
TGI [7]: > 100 µM
GI50 [8]: > 100 µM
TGI [8]: > 100 µM
GI50 [9]: > 100 µM
TGI [9]: > 100 µM
GI50 [10]: > 100 µM
TGI [10]: > 100 µM

O=C(c1cccs1)c1c(C(F)(F)F)n([O-])c2cc(F)c(F)cc2[n+]1=O
GI50 [1]: 3.57 µM
TGI [1]: 5.58 µM
GI50 [2]: 2.25 µM
TGI [2]: 5.96 µM
GI50 [3]: 4.44 µM
TGI [3]: 8.75 µM
GI50 [4]: 1.9 µM
TGI [4]: 4.44 µM
GI50 [5]: 0.498 µM
TGI [5]: 7.84 µM
GI50 [6]: 2.48 µM
TGI [6]: 6.6 µM
GI50 [7]: 1.02 µM
TGI [7]: 2.72 µM
GI50 [8]: 0.314 µM
TGI [8]: 0.588 µM
GI50 [9]: 6.65 µM
TGI [9]: 9.07 µM
GI50 [10]: 1.91 µM
TGI [10]: 3.7 µM

Cc1cc(NC(=O)CCc2ccc(N3C(N)=NC(N)=NC3(C)C)cc2)ccc1S(=O)(=O)F
GI50 [1]: 0.468 µM
TGI [1]: > 100 µM
GI50 [2]: 10.6 µM
TGI [2]: > 100 µM
GI50 [3]: 0.291 µM
TGI [3]: > 100 µM
GI50 [4]: 0.125 µM
TGI [4]: 19.1 µM
GI50 [5]: 1.27 µM
TGI [5]: > 100 µM
GI50 [6]: 0.737 µM
TGI [6]: > 100 µM
GI50 [7]: 0.148 µM
TGI [7]: > 100 µM
GI50 [8]: 1 µM
TGI [8]: 26.4 µM
GI50 [9]: 0.709 µM
TGI [9]: > 100 µM
GI50 [10]: > 32.6 µM
TGI [10]: > 100 µM

CCC(=S)N(C)O
TGI [1]: > 100 µM
TGI [2]: > 100 µM
TGI [3]: > 81.1 µM
TGI [4]: 51 µM
TGI [5]: 46.9 µM
TGI [6]: > 100 µM
TGI [7]: > 100 µM
TGI [8]: 84.1 µM
TGI [9]: > 95.7 µM
TGI [10]: > 100 µM

COc1ccc(/C=N/NC(=O)O)cc1
TGI [1]: > 100 µM
TGI [2]: > 100 µM
TGI [3]: > 100 µM
TGI [4]: > 100 µM
TGI [5]: > 100 µM
TGI [6]: > 100 µM
TGI [7]: > 100 µM
TGI [8]: > 100 µM
TGI [9]: > 100 µM
TGI [10]: > 100 µM

CCN(C)S(=O)(=O)Nc1cccc(Nc2ncnc3cc(NC(=O)CCl)ccc23)c1Cl
GI50 [1]: 2.62 µM
TGI [1]: 6.76 µM
GI50 [2]: 5.01 µM
TGI [2]: 13.2 µM
GI50 [3]: 0.973 µM
TGI [3]: 4.04 µM
GI50 [4]: 3.43 µM
TGI [4]: 7.83 µM
GI50 [5]: 0.926 µM
TGI [5]: 8.83 µM
GI50 [6]: 1.77 µM
TGI [6]: 7.34 µM
GI50 [7]: 0.611 µM
TGI [7]: 1.64 µM
GI50 [8]: 3.43 µM
TGI [8]: 6.77 µM
GI50 [9]: 3.89 µM
TGI [9]: 9.57 µM
GI50 [10]: 3.92 µM
TGI [10]: 15.8 µM

C=C1CC2(OC1=O)c1ccccc1CCc1ccccc12
TGI [1]: 27.7 µM
TGI [2]: 3.6 µM
TGI [3]: 3.17 µM
TGI [4]: 28 µM
TGI [5]: 7.18 µM
TGI [6]: 3.91 µM
TGI [7]: 18.1 µM
TGI [8]: 4.06 µM
TGI [9]: 6.51 µM
TGI [10]: 3.35 µM

O=S(=O)(Nc1ccc(Cl)c(C(F)(F)F)c1)c1ccc(-c2cnc(C3CC3)o2)cc1
GI50 [1]: 1.51 µM
TGI [1]: 7.24 µM
GI50 [2]: 0.289 µM
TGI [2]: 8.92 µM
GI50 [3]: 1.1 µM
TGI [3]: 3.58 µM
GI50 [4]: 0.296 µM
TGI [4]: 1.75 µM
GI50 [5]: 0.622 µM
TGI [5]: 14.1 µM
GI50 [6]: 0.276 µM
TGI [6]: 4.68 µM
GI50 [7]: 0.326 µM
TGI [7]: 10.9 µM
GI50 [8]: 0.452 µM
TGI [8]: 2.16 µM
GI50 [9]: 1.09 µM
TGI [9]: 3.31 µM
GI50 [10]: 1.17 µM
TGI [10]: 5.79 µM

CC1=COC2=C(C)C(=O)C(=O)c3c(C)ccc1c32
TGI [1]: 34.8 µM
TGI [2]: 27.7 µM
TGI [3]: 19.6 µM
TGI [4]: 3.26 µM
TGI [5]: 12 µM
TGI [6]: 13.8 µM
TGI [7]: > 44.7 µM
TGI [8]: 10.7 µM
TGI [9]: 19.6 µM
TGI [10]: > 100 µM

O=C1Nc2ccccc2SC1C1SC(=S)N(Cc2ccccc2)C1=O (centres undefined)
GI50 [1]: 20.2 µM
TGI [1]: 37 µM
GI50 [2]: 0.815 µM
TGI [2]: 21.1 µM
GI50 [3]: 5.06 µM
TGI [3]: 16.5 µM
GI50 [4]: 13.7 µM
TGI [4]: 29.3 µM
GI50 [5]: 3.57 µM
TGI [5]: > 36 µM
GI50 [6]: 4.6 µM
TGI [6]: 19.8 µM
GI50 [7]: 3.14 µM
TGI [7]: 12.2 µM
GI50 [8]: 3.79 µM
TGI [8]: 12.8 µM
GI50 [9]: 5.33 µM
TGI [9]: 17.1 µM
GI50 [10]: 4.99 µM
TGI [10]: 18 µM

Nc1ccc(-c2ccc(-c3nc4ccccc4[nH]3)cc2)cc1
GI50 [1]: > 75.9 µM
TGI [1]: > 100 µM
GI50 [2]: 3.89 µM
TGI [2]: > 100 µM
GI50 [3]: 8.78 µM
TGI [3]: 84.9 µM
GI50 [4]: 14.9 µM
TGI [4]: > 100 µM
GI50 [5]: 9.94 µM
TGI [5]: > 58.2 µM
GI50 [6]: 0.0328 µM
TGI [6]: > 100 µM
GI50 [7]: 11.4 µM
TGI [7]: 44.5 µM
GI50 [8]: 0.208 µM
GI50 [9]: 0.105 µM
TGI [9]: 0.438 µM
GI50 [10]: 2.08 µM
TGI [10]: > 100 µM

N#Cc1ccc(-n2cnc(NC(=O)[C@H]3CCN(C#N)C3)c2)cc1
GI50 [1]: 3.3 µM
TGI [1]: > 100 µM
GI50 [2]: 0.706 µM
TGI [2]: 6.86 µM
GI50 [3]: 2.42 µM
TGI [3]: 9.11 µM
GI50 [4]: 2.08 µM
TGI [4]: 6.13 µM
GI50 [5]: 2.15 µM
TGI [5]: > 29.8 µM
GI50 [6]: 0.757 µM
TGI [6]: 6.28 µM
GI50 [7]: 3.29 µM
TGI [7]: > 56.7 µM
GI50 [8]: 1.18 µM
TGI [8]: 5.95 µM
GI50 [9]: 2.28 µM
TGI [9]: 18.6 µM
GI50 [10]: 2.64 µM
TGI [10]: > 100 µM
